Assay results: patent publication US20110020471A1, “ERYTHROCYTE ATP-RELEASE MODULATORS” (Wayne State University, priority 2007, published 2011)

Columns and labels:
[1] = test system: rabbit red blood cells (RBCs); experiment: Deformation-induced ATP release from rabbit RBCs pumped through microbore tubing (luciferin/luciferase chemiluminescence); type: cell-based
Experimental: (§1) Preparation of RBCs. Rabbits (New Zealand whites, males, 2.0-2.5 kg) were anesthetized with ketamine ([…], i.m.) and xylazine (1 mg/kg, i.m.) followed by pentobarbital sodium (15 mg/kg i.v.). A cannula was placed in the trachea and the animals were ventilated with room air. A catheter was placed into a carotid artery for administration of heparin and for phlebotomy. After heparin (500 units, i.v.), the animals were exsanguinated. Human blood was obtained by venipuncture without the use of a tourniquet (antecubital fossa) and collected into a heparinized syringe. Blood was centrifuged at 500×g at 4 C for 10 min. The plasma and buffy coat were discarded. The RBCs were resuspended and washed three times in a physiological salt solution [PSS, containing in mM: 4.7 KCl, 2.0 CaCl2, 140.5 NaCl […], 21.0 tris(hydroxymethyl)aminomethane, 11.1 dextrose with 5% bovine serum albumin (final pH 7.4)]. Cells were prepared on the day of use and experiments were finished within 8 hours of removal from the animal or human subjects. All procedures were approved by the Animal Investigation Committee or the Human Investigation Committee at Wayne State University.
(§2) Measurement of ATP. Human C-peptide (American Peptide Co., Sunnyvale, Calif.), 0.25 mg (MW=3020 g/mol), was dissolved in […] of purified water (18.2 megaohm) to yield a concentration of 83 μM. […] The resulting chemluminescence reaction flowed through a final potion of fused-silica microbore tubing that was placed over a photomultiplier tube, where the emission was detected. The resultant current was measured as a potential by a data acquisition board operated by a program written with the LabView software package (National Instruments, Austin, Tex.).
Introduction. […] Upon deformation in the tubing, the RBCs release ATP that is measured using a well-established chemiluminescence assay for ATP. The concentrations of RBC-derived ATP are measured in the presence and absence of synthetic C-peptide.
C-Peptide-Induced Release of ATP. RBCs obtained from rabbits are pumped through microbore tubing having an inside diameter of […] and the resultant ATP released by the cells upon deformation in the tubing is measured. […] Another aliquot from the same RBC sample is incubated in 1 nM C-peptide and the resultant ATP release measured every 2 h for a period up to 6 h. […] As shown, the ATP release (determined by a chemiluminescence assay) from those cells incubated in the c-peptide increased approximately 2.9 times over a period of […]. […] If cell lysis were occurring, the glybenclamide would have no affect on the measured ATP as it would be present in extracellular form whether or not glybenclamide was introduced to the RBCs. […]

[2] = test system: diabetic human RBCs; experiment: ATP release from RBCs of patients with type II diabetes; type: cell-based; conditions: for ATP release: diabetic human RBCs, ±SEM (n=7)
Experimental: as §1
as §2, with “μM. Next, an appropriate volume of this C-peptide solution was added to 10 mL of a 7% solution of RBCs to create a solution containing the C-peptide at concentrations in the 1-5 nM range.” for “μM.”, “Tex.). […]” for “Tex.).”

[3] = test system: RBCs; experiment: Lysis control: ATP signal of RBC solutions under non-flow conditions (luminometer); type: cell-based; conditions: 200 μL RBC solution and 200 μL luciferin/luciferase
Experimental: To ensure that the resulting increase in ATP release was due to C-peptide interacting with the RBCs and not cell lysis, the RBC solutions were measured under non-flow conditions using a luminometer with 200 μL of the RBC solution and 200 μL of the luciferin/luciferase solution. […] To ensure that lysis was not occurring in the tubing, a solution of 0.01 M glybenclamide was prepared by adding 49 mg of glybenclamide (Sigma) to 2 mL of a 0.1 M solution of sodium hydroxide. To this, 7.94 mL of a dextrose solution (1 g dextrose in 20 mL of purified water) was added. The mixture was heated carefully to 52° C. until all of the glybenclamide was dissolved. Once the solute was completely dissolved, 1 mL of this solution was added to 9 mL of PSS, resulting in a solution with a concentration 0.001 M. From this diluted solution, 2.5 mL were added to 2.5 mL of 7% hematocrit RBC solution, resulting in a 3.5% hematocrit solution of RBCs. This solution was allowed to incubate for 15 minutes. As a comparison, 2.5 mL of wash buffer without glybenclamide was added to 2.5 mL of 7% hematocrit RBCs. After 15 minutes, the RBC solutions were assayed.

[4] = test system: RBCs; experiment: Loss of ATP-release bioactivity of C-peptide preparation in water (metaanalysis of repeats of Experiments 1 and 2); type: cell-based
[5] = Electrospray ionization mass spectrometry of C-peptide and metal adducts in aqueous solution; type: physicochemical; conditions: ESI-MS, remaining in solution for periods >30 days
Experimental: Mass Spectrometric Analysis of Metal-Peptide Binding. […] Thus, alternative postulated causes are tested, including that a covalent modification of the peptide, e.g., induction or lysis of a side-chain-to-side-chain bond or of a moiety covalently attached to an amino acid residue, might be involved, or that non-covalent interaction with another chemical species, e.g., a metal ion, might be involved in this effect.
The data in FIG. 3 reveal some information about the possible loss of activity of the C-peptide after preparation in the aqueous solvent. Specifically, the mass spectrum shown in FIG. 3a is that of peptide prepared in water and analyzed within 0.5 h of preparation. In 3a, the [M+3H]^3+ peak is present as are other forms of the peptide with sodium atoms, potassium atoms, or a combination thereof. […] The presence of this Fe(II) adduct to the C-peptide is not present 24 h after preparation.
Although the Fe(II)-bound C-peptide has the ability to increase ATP-release from deformed RBCs, its activity also appears somewhat limited. […] The unexpected result is that the population of Fe(II)-C-peptide adduct begins to diminish within 24 h after the addition of an Fe(II) source, and Fe(II) is then replaced by either sodium or potassium, or both, cations in the C-peptide complex.
Improving Metal-Induced Activity of C-Peptide. […]

| Compound | effect on the C-peptide-induced increase in ATP release ([1]; RBCs incubated in glybenclamide) | restoration of ATP release levels of diabetic RBCs ([2]; RBCs of patients with type II diabetes (n=7)) | ATP release ([2]; after 6 hours of incubation with freshly prepared C-peptide preparation) | ATP release ([2]; at 0 hours, freshly prepared C-peptide preparation) | ATP signal under non-flow conditions [3] | time to loss of bioactivity after preparation in water [4] | increase in ATP release versus control (buffer without C-peptide) ([1]; 1 nM C-peptide, over the 6 h period) | increase in ATP release ([1]; 1 nM c-peptide, over a period of 8 h, normalized values) | ability to induce ATP release from deformed RBCs ([1]; C-peptide kept at 4° C. for >30 days) | degradation or cleavage of the peptide in solution [5] |
| --- | --- | --- | --- | --- | --- | --- | --- | --- | --- | --- |
| COc1ccc(Cl)cc1C(=O)NCCc1ccc(S(=O)(=O)NC(=O)NC2CCCCC2)cc1 [glybenclamide, reference compound] | can be inhibited |  |  |  |  |  |  |  |  |  |
| C-peptide: Human proinsulin C-peptide (American Peptide Co.), MW 3020 g/mol, synthetic (EAEDLQVGQVELGGGPGAGSLQPLALEGSLQ; (1)..(31) Hominidae sp. proinsulin C-peptide Human (Genbank P01308..gi124617), Chimpanzee (Genbank NP_001008996.1.. gi57113877), Orangutan (Genbank Q8HXV2..gi48428254), and Gorilla (Genbank AAM76640.1..gi23379796); listed as Hominidae sp.) |  | statistically equivalent to that of healthy, non-diabetic control patients | 256.1 ± 38.7 nM | 63.6 ± 12.6 nM | No detectable signals | 24 to 36 h | nearly three times that of the RBCs incubated with a control | approximately 2.9 times | no longer has the ability to induce ATP release from deformed RBCs | not undergoing any type of degradation or cleavage |
